We go through seven compounds from patent publication US11999759B2, “Boronic acid derivatives and therapeutic uses thereof” (Qpex Biopharma, Inc., priority 2016, dated 2024).

Data set [1] has as its target CTX-M-14 (Escherichia coli, UniProt Q9L5C7). Put plainly: Inhibition of nitrocefin cleavage by purified CTX-M-14. It counts as biochemical. As to conditions: nitrocefin reporter substrate; 10 min preincubation at room temperature; read-out: Ki (CTX-M-14, NCF). On the procedure:
(§1) Ki values of inhibition of purified class A, C and D enzymes were determined spectrophotometrically using nitrocefin as reporter substrate. Purified enzymes were mixed with various concentrations of inhibitors in reaction buffer and incubated for 10 min at room temperature. Nitrocefin was added and substrate cleavage profiles were recorded at 490 nm every 10 sec for 10 min.

Data set [2] deals with SHV-12 (Klebsiella pneumoniae, UniProt P0AD64, E235K/G234S/L31Q). Put plainly: Inhibition of nitrocefin cleavage by purified SHV-12. It counts as biochemical. The note with it: nitrocefin reporter substrate; 10 min preincubation at room temperature; read-out: Ki (SHV-12, NCF). The procedure: as §1
SHV-12, sequence (P0AD64 22-286 L31Q/G234S/E235K): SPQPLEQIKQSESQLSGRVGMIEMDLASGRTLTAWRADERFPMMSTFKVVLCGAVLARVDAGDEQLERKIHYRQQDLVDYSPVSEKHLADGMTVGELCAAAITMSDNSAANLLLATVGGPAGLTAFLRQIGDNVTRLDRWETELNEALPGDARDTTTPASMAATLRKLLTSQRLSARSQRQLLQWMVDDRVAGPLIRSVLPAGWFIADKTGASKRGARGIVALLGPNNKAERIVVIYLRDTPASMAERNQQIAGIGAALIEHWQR
Data set [3] addresses KPC-2 (Klebsiella pneumoniae, UniProt Q9F663). In words: Inhibition of nitrocefin cleavage by purified KPC-2. It counts as biochemical. The note with it: nitrocefin reporter substrate; 10 min preincubation at room temperature; read-out: Ki (KPC-2, NCF). Put shortly: (§2)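 Inhibitor potency was expressed as Ki, measured spectrophotometrically against purified enzyme using nitrocefin cleavage read at 490 nm after a 10 min room-temperature preincubation with inhibitor.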

Data set [4] addresses P99 (Enterobacter cloacae, UniProt P05364). In words: biochemical. The note with it: nitrocefin reporter substrate; 10 min preincubation at room temperature; read-out: Ki (P99, NCF). On the procedure:
as §1

The target in data set [5] is Pa-AmpC (Pseudomonas aeruginosa, UniProt P24735). Put plainly: biochemical. The note with it: nitrocefin reporter substrate; 10 min preincubation at room temperature; read-out: Ki (Pa-AmpC, NCF). On the procedure: as §1
Pa-AmpC, sequence (P24735 27-397): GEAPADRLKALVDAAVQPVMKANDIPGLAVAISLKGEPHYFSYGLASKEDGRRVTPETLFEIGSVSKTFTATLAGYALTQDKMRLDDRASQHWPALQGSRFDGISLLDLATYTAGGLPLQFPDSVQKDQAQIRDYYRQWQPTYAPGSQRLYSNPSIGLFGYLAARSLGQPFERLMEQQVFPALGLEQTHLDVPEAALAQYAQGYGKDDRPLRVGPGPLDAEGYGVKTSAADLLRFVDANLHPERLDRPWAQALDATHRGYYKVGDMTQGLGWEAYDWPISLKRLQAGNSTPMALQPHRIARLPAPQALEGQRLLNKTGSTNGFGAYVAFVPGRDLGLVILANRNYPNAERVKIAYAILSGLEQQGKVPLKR
The target in data set [6] is OXA-48 (Klebsiella pneumoniae, UniProt Q6XEC0). Put plainly: Inhibition of nitrocefin cleavage by purified OXA-48. It is filed as biochemical. The note with it: nitrocefin reporter substrate; 10 min preincubation at room temperature; read-out: Ki (OXA-48, NCF). Put shortly: as §2
OXA-48, sequence (Q6XEC0 23-265, looked up): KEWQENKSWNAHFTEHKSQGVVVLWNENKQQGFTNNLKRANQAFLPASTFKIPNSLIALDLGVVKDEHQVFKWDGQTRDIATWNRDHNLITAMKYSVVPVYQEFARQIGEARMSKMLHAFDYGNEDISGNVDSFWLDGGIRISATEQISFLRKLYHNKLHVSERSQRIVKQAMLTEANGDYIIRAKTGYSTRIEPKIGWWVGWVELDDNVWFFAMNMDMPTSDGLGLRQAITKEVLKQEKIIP
Data set [7] addresses OXA-23 (Acinetobacter baumannii, UniProt Q9L4P2). In words: Inhibition of nitrocefin cleavage by purified OXA-23. As to conditions: nitrocefin reporter substrate; 10 min preincubation at room temperature; read-out: Ki (OXA-23, NCF). It counts as biochemical. Put shortly:
as §2

Data set [8] concerns the target VIM-1 (Pseudomonas aeruginosa, UniProt A0A0F7KYQ8). Put plainly: Inhibition of nitrocefin cleavage by purified VIM-1. It is filed as biochemical. As to conditions: nitrocefin reporter substrate; 10 min preincubation at room temperature; read-out: Ki (VIM-1, NCF).
Data set [9] concerns the target NDM-1 (Klebsiella pneumoniae, UniProt C7C422). In words: Inhibition of imipenem cleavage by purified NDM-1. As to conditions: imipenem reporter substrate; 37° C.; read-out: Ki (NDM-1, IMI). It is filed as biochemical. The procedure:
Purified enzymes were mixed with various concentrations of inhibitors in reaction buffer and incubated for 10 min at room temperature. Imipenem was added and substrate cleavage profiles were recorded at 294 nm every 30 seconds for 30 minutes at 37° C.

Data set [10] deals with IMP-1 (Serratia marcescens, UniProt P52699). Put plainly: Inhibition of imipenem cleavage by purified IMP-1. It is filed as biochemical. The note with it: imipenem reporter substrate; 37° C.; read-out: Ki (IMP-1, IMI). Put shortly:
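Purified enzymes preincubated with varying inhibitor concentrations for 10 min at room temperature, then imipenem added as reporter substrate. Hydrolysis followed spectrophotometrically at 294 nm every 30 s for 30 min at 37° C; Ki values derived.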

Data set [11] has as its system PAM1032/KPC-2 (overexpressed MexAB-OprM). Put plainly: Biapenem potentiation (MPC64) in PAM1032/KPC-2. It counts as cell-based, Pseudomonas aeruginosa. Also on record: PAM1032/KPC-2 Biapenem MPC64: unit not given here. As to conditions: BLI potency to decrease biapenem MIC 64-fold, from 32 to 0.5 μg/ml; efflux proficient strain. Put shortly: (§3)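 KPC-2 plasmid-expressing P. aeruginosa strains were used to measure BLI potentiation of biapenem as MPC64. The PAM1032/KPC-2 to PAM1154/KPC-2 MPC64 ratio gave the Efflux Index.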

The test system of data set [12] is PAM1154/KPC-2 (lacked MexAB-OprM). In words: Biapenem potentiation (MPC64) in PAM1154/KPC-2. As to conditions: BLI potency to decrease biapenem MIC 64-fold, from 32 to 0.5 μg/ml; efflux deficient strain. It counts as cell-based, Pseudomonas aeruginosa. Also on record: PAM1154/KPC-2 Biapenem MPC64: unit not given here. Put shortly:
as §3

Data set [13] in a line: Stability of compound 13 prodrugs in human serum. It counts as in vitro ADME. The note with it: 37° C., prodrug 50.0 μg/mL. The procedure:
The rate of hydrolysis for several prodrugs of 13 was evaluated in vitro by measuring their stability in human serum and human liver microsomes. All serum stability experiments were conducted by aliquoting 10 μL of test compound at 500 μg/mL (10× final concentration) in 95:5 water:acetonitrile v/v into 1.5 mL Eppendorf tubes. […] The tubes were then warmed to 37° C. in a water bath along with human serum (Bioreclamations) in a separate tube. Serum esterase activity for each lot of serum used was established by assaying an unrelated ester prodrug as a control. To initiate the reaction, 90 μL of serum was added to tubes for all timepoints using a repeating-tip pipette, thereby bringing the final concentration of test compound to 50 μg/mL and the final concentration of acetonitrile to 0.5% v/v. At each timepoint, the reaction was halted and serum proteins precipitated through the addition of an equal volume of cold acetonitrile containing 25 μg/mL diclofenac as an internal standard. […] Sample analysis for serum stability experiments was conducted using an Agilent 1100 binary pump HPLC equipped with a diode array detector set to monitor absorbance at 286 nm (8 nm bandwidth). […] The samples were analyzed together with appropriate blanks in order to ensure specificity. […] The rate of activation was determined by monitoring the concentration of test compound as follows. The peak area for the analyte was divided by the peak area for the internal standard to give an area ratio. The area ratio for each timepoint was divided by the area ratio for timepoint 0 to give the percent remaining at each timepoint. The natural logarithm of the percent remaining versus time was plotted using Microsoft Excel and fitted to a linear trendline.

Data set [14] can be described thus: Stability of compound 13 prodrugs in human liver microsomes (HLM). The note with it: 0.500 mg/mL human liver microsomes, no cofactors, prodrug 1.00 μM. It counts as in vitro ADME. The procedure:
In the meantime, a 20.0 mg/mL solution of human liver microsomes (XenoTech, LLC) was diluted to 1.00 mg/mL (2× final concentration). Esterase activity for each lot of microsomes used was established by assaying an unrelated ester prodrug as a control. Both the Eppendorfs for each timepoint and the diluted liver microsomes were then warmed to 37° C. in a water bath. No cofactors (e.g. NADPH) were added to ensure that only hydrolytic reactions as opposed to reactions mediated by other cofactor-dependent enzymes (e.g. CYP450 enzymes) would take place. To initiate the reaction, 50 μL of diluted human liver microsomes was added to tubes for all timepoints using a repeating-tip pipette, thereby bringing the final concentration of test compound to 1.00 μM and the final concentration of human liver microsomes to 0.500 mg/mL. At each timepoint, the reaction was halted and proteins precipitated through the addition of 200 μL of 10:45:45 water:methanol:acetonitrile v/v/v containing an unrelated ester prodrug at 250 ng/mL as an internal standard. […] Sample analysis for microsome stability experiments was conducted using a 20.0 μL injection on a LEAP PAL autosampler with Agilent 1100 binary pump HPLC coupled to an AB Sciex 3200 QTrap mass spectrometer. […] Detection was in positive mode; source parameters and parent-daughter ion selection criteria were chosen as needed for each compound to achieve an appropriate limit of detection and signal-to-noise ratio. The samples were analyzed together with appropriate blanks in order to ensure specificity. The rate of hydrolysis for each prodrug was determined by monitoring the concentration of test compound as follows. The peak area for the analyte was divided by the peak area for the internal standard to give an area ratio. The area ratio for each of the two replicates at each timepoint was divided by the area ratio for timepoint 0 to give the percent remaining at each timepoint. The natural logarithm of the percent remaining versus time for all replicates was plotted using Microsoft Excel and fitted to a linear trendline.

pKi: −log10 of the molar value.

NDM-1, sequence (C7C422 29-270, looked up, species assumed): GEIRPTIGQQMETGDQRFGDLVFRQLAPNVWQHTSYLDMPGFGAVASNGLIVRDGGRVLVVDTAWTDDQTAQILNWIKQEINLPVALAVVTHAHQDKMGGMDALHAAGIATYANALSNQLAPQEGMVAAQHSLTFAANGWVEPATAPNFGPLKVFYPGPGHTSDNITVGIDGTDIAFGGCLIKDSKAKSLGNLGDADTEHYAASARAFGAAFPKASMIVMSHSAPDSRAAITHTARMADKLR
IMP-1, sequence (P52699 19-246, looked up, species assumed): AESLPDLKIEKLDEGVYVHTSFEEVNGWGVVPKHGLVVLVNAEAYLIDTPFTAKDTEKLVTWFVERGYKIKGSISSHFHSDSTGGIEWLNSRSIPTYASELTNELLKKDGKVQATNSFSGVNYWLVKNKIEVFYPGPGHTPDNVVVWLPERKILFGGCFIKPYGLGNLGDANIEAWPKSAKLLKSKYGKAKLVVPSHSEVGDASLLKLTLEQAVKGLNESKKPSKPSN
OXA-23, sequence (Q9L4P2 18-273): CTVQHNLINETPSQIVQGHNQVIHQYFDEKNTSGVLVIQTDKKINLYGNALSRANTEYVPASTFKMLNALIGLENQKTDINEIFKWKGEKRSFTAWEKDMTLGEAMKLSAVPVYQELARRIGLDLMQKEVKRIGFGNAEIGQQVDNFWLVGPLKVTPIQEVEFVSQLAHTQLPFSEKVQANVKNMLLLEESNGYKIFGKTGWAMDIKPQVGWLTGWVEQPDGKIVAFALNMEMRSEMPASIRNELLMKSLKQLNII
KPC-2, sequence (Q9F663 25-293 limits assumed): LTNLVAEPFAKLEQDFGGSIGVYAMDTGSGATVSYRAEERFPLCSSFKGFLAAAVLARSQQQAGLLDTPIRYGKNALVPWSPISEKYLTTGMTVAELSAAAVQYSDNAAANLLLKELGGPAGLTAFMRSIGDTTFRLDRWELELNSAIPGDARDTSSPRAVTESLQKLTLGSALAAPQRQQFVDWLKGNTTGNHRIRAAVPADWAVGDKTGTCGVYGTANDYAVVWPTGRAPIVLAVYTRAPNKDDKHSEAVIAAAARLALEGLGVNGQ
P99, sequence (P05364 21-381): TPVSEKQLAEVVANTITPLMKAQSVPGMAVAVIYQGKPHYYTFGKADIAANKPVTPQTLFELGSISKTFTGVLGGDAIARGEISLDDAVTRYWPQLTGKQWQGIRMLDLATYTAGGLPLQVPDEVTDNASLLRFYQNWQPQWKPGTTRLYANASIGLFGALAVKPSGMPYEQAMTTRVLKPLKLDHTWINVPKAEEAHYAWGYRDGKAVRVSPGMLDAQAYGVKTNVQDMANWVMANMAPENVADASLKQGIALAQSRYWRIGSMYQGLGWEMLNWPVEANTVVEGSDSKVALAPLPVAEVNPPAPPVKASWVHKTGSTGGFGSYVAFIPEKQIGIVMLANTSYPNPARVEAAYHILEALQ
CTX-M-14, sequence (Q9L5C7 29-291, species assumed): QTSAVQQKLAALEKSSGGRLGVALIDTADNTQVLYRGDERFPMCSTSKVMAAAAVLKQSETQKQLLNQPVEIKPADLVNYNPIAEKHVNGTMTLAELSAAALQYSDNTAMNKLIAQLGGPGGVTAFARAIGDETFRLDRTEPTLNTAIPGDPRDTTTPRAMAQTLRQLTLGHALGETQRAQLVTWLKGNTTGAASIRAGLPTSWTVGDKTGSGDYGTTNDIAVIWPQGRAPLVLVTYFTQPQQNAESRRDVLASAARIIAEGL

Regarding `COc1ccc2c(c1C(=O)O)OB(O)C1C2[C@H]2C=C[C@@H]1C2` (stereo partly drawn) [Compound 6, (7R,10R)-6-hydroxy-3-methoxy-6a,7,10,10a-tetrahydro-6H-7,10-methanodibenzo[c,e][1,2]oxaborinine-4-carboxylic acid], the negative-log Ki (pKi) in data set [1] was under 6.00; in data set [2], 6.00 to 7.00; in data set [3], over 7.00; in [4], over 7.00; in [5], over 7.00; in data set [6] it was over 7.00. The pKi in data set [7] was 6.00 to 7.00; in data set [8] it was 6.00 to 7.00; in [9] it was under 6.00; in data set [10] it was under 6.00.
`O=C(O)c1c(F)ccc2c1OB(O)[C@@H]1C[C@H]21` [Compound 13, (1aR,7bS)-5-fluoro-2-hydroxy-1a,7b-dihydro-1H-cyclopropa[c][1,2]benzoxaborinine-4-carboxylic acid]: the pKi in [1], in [2], in data set [3], in data set [4], in data set [5] and in data set [6] was over 7.00 throughout. Besides, the negative-log Ki (pKi) in data set [7] is over 7.00; in [8] it was over 7.00; in data set [10], 6.00 to 7.00. In [11], the “PAM1032/KPC-2 Biapenem MPC64” value amounted to 2.5. The “PAM1154/KPC-2 Biapenem MPC64” value in [12] worked out at 2.5.
`O=C(O)c1cccc2c1OB(O)C1CC21` (centres unmarked) [Compound 10, 2-Hydroxy-1a,7b-dihydro-1H-cyclopropa[c][1,2]benzoxaborinine-4-carboxylic acid]: the pKi in [1], in data set [2], in data set [3], in [4], in [5] and in data set [6] was over 7.00 throughout. The negative-log Ki (pKi) in [7] is over 7.00; in [8], over 7.00; in data set [9], over 7.00; in [10], 6.00 to 7.00.
Regarding `COc1ccc2c(c1C(=O)O)OB(O)CC21CC1` [Compound 11, 2-hydroxy-7-methoxy-spiro[3H-1,2-benzoxaborinine-4,1′-cyclopropane]-8-carboxylic acid], the pKi in [1], in data set [2], in data set [3], in [4], in data set [5] and in data set [6] was over 7.00 throughout. The pKi was over 7.00 in data set [7], 6.00 to 7.00 in [8], over 7.00 in [9] and 6.00 to 7.00 in [10].
With `O=C(O)c1c(F)ccc2c1OB(O)[C@H]1C[C@@H]21` [Compound 12, (1aS,7bR)-5-fluoro-2-hydroxy-1a,7b-dihydro-1H-cyclopropa[c][1,2]benzoxaborinine-4-carboxylic acid], the negative logarithm of the Ki (pKi) in [1] is over 7.00; in data set [2], over 7.00; in [3] it was over 7.00; in data set [4] it was over 7.00; in data set [5], 6.00 to 7.00; in data set [6] it was over 7.00. Also, the pKi is over 7.00 in [7], under 6.00 in [8] and under 6.00 in data set [10]. In data set [11], the “PAM1032/KPC-2 Biapenem MPC64” value is 2.5. Besides, in data set [12], the “PAM1154/KPC-2 Biapenem MPC64” value amounted to 1.25.
Turning to `COc1ccc2c(c1C(=O)O)OB(O)C1C2[C@H]2CC[C@@H]1C2` (stereo partly drawn) [Compound 7, (7R,10S)-6-hydroxy-3-methoxy-6a,7,8,9,10,10a-hexahydro-6H-7,10-methanodibenzo[c,e][1,2]oxaborinine-4-carboxylic acid], the negative logarithm of the Ki (pKi) was over 7.00 in data set [1]; 6.00 to 7.00 in [2]; over 7.00 in data set [3]; over 7.00 in data set [4]; over 7.00 in data set [5]; over 7.00 in data set [6]. Moreover, the negative logarithm of the Ki (pKi) in data set [7], in data set [8], in [9] and in data set [10] was over 7.00 in each case.
With `COCC(=O)OCOC(=O)c1c(F)ccc2c1OB(O)[C@@H]1C[C@H]21` [Compound 43, (2-Methoxyacetyl)oxymethyl (1aR,7bS)-5-fluoro-2-hydroxy-1a,7b-dihydro-1H-cyclopropa[c][1,2]benzoxaborinine-4-carboxylate], in [13] (t = 0 min), the “% of initial area ratio at t = 0 min” value is 100%. Moreover, the “% of initial area ratio at t = 5 min” value in [13] (t = 5 min) was determined as 58.6%. Also, in [13] (t = 10 min), the “% of initial area ratio at t = 10 min” value was found to be 34.5%. In data set [13] (t = 30 min), the “% of initial area ratio at t = 30 min” value was found to be 2.9%. For the same compound, in data set [14] (t = 0 min), the “Average % of initial area ratio at t = 0 min” value is listed as 100%. For the same compound, in [14] (t = 5 min), the “Average % of initial area ratio at t = 5 min” value is listed as 64.4%. The “Average % of initial area ratio at t = 10 min” value in data set [14] (t = 10 min) turned out to be 44.6%. Besides, the “Average % of initial area ratio at t = 30 min” value in [14] (t = 30 min) was found to be 0.6%. For the same compound, the half-life at 1 μM in data set [14] (pH 7.4, read-out: Estimated half-life (minutes) (rounded to nearest integer value)) was 4 min.
